Laboratory results taken from publication PMC6455008, “Methylation at the C-3′ in D-Ring of Strigolactone Analogs Reduces Biological Activity in Root Parasitic Plants and Rice” (Frontiers in Plant Science, 2019).
Like-named read-outs stand apart in the source and are kept apart here.

Experiments:
[1] = test system: Arabidopsis seedlings; assay: Arabidopsis hypocotyl elongation assay; type: in vivo; settings: compared to control seedlings; for inhibition of hypocotyl growth (reduction in hypocotyl length): 1.0 μM
Experimental: The sterilized Arabidopsis seeds were grown in petri plates that were first kept at 4°C in darkness for 3 days. For hypocotyl study, the petri plates were exposed to continuous white light for 24 h, then transferred to continuous monochromatic red light (20 μmol m^−2 s^−1, 22°C) conditions for another 4 days. For lateral root density, the plates were vertically grown at 22°C in Percival incubator under long day conditions (16 h at 22°C/8 h at 16°C day/night, 60% relative humidity, 60–70 μmol m^−2 s^−1 white light) for 8 days. After scanning, the hypocotyl length and number of lateral roots were recorded using publicly available ImageJ software.^1

[2] = test system: P. aegyptiaca seeds; assay: Parasitic seed germination bioassay, Phelipanche; type: in vivo, Phelipanche aegyptiaca; settings: for EC50: Phelipanche aegyptiaca; for P. aegyptiaca germination rate: non-formulated, 1.0 μM, 1 week at 25°C
Experimental: (§1) Germination activity of SL analogs on S. hermonthica and P. aegyptiaca seeds was tested by following the procedure described before ([Jamil et al., 2012]). The preconditioned Striga and Phelipanche seeds were treated with 50 μl of each SL analog solution at a concentration range (10^−5–10^−12 M). GR24 and sterile MilliQ water were included as positive and negative controls, respectively. The treated seeds were allowed to germinate in the dark for 24 h at 30°C (for Striga) and for 1 week at 25°C (for Phelipanche). The germinated and non-germinated seeds were counted under a binocular microscope, and germination rate (in %) was calculated.
(§2) Collected data were analyzed statistically using statistical software package R (version 3.2.2).

[3] = test system: Striga seeds; assay: Stability of formulated SL analogs in aqueous solution under storage (Striga germination readout); type: physicochemical, Striga hermonthica; settings: 1.0 μM
Experimental: The stability of formulated SL analogs was further tested in sand culture. About 1.5 ml of silver sand was added in each of 6 wells of 24-well plates. Then, 800 μl of formulated SL analogs (1.0 μM) was added in each of the six wells. The plates were sealed firmly with para-film, wrapped in aluminum foil, and placed at 30°C from day 1 to day 7. After 7 days, glass fiber discs containing preconditioned Striga seeds were placed on the top of each of the six wells and incubated in the dark at 30°C for 24 h. The germinated and non-germinated seeds were counted from each disc. In addition, the viability of formulated SL analogs was also tested in aqueous solution for 7 weeks at 30°C. About 800-μl aqueous solution of formulated SL analogs (1.0 μM) was added in a black Eppendorf tube weekly up to 6 weeks and incubated at 30°C. On the seventh week, about 50 μl of each analog was applied on a glass fiber disc containing preconditioned Striga seed and put again in the dark in sealed petri plates at 30°C for 24 h. Germinated and non-germinated seeds were counted from each disc.

[4] = test system: S. hermonthica seeds; assay: Parasitic seed germination bioassay, Striga; type: in vivo, Striga hermonthica; settings: for Striga germination rate: 1.0 μM, formulated and non-formulated, 24 h at 30°C; for EC50: Striga hermonthica
Experimental: as §1, §2

[5] = test system: Striga hermonthica; assay: Striga emergence in pots under greenhouse conditions (suicidal germination, rice host); type: in vivo; settings: formulated 1.0 μM; for Striga emergence at 10 WAS / decrease in Striga emergence compared to mock at 10 WAS: 10 weeks after sowing; for Striga hermonthica emergence, 5 WAS / Striga hermonthica emergence, 6 WAS / Striga hermonthica emergence, 7 WAS / Striga hermonthica emergence, 8 WAS / Striga hermonthica emergence, 9 WAS / Striga hermonthica emergence, 10 WAS: mean ± SE; for Striga hermonthica emergence, 5 WAS: n=5, 5 weeks after sowing; for Striga hermonthica emergence, 6 WAS: n=5, 6 weeks after sowing; for Striga hermonthica emergence, 7 WAS: n=5, 7 weeks after sowing; for Striga hermonthica emergence, 8 WAS: n=5, 8 weeks after sowing; for Striga hermonthica emergence, 9 WAS: n=5, 9 weeks after sowing; for Striga hermonthica emergence, 10 WAS: n=5, 10 weeks after sowing; for percent decrease in Striga hermonthica emergence over mock, 8 WAS / percent decrease in Striga hermonthica emergence over mock, 9 WAS / percent decrease in Striga hermonthica emergence over mock, 10 WAS: negative = decrease
Experimental: About 10 mg of (ca 4,000) Striga seeds were thoroughly mixed in 2 L of sand and soil mixture (1:1) and added in 3-L perforated plastic pot containing 0.5 L of clean soil in the bottom. Striga seeds were first preconditioned by giving light irrigation and putting pots at 35°C in greenhouse for 10 days. Each pot was sprayed with 20-ml (1.0 μM) formulated SL analogs up to 10 days at 2-day intervals. A light irrigation was given next day of each application to move the compound to Striga seeds and they were allowed to germinate for suicidal death without host for another 1 week. Then, three rice seedlings (5 days old) were planted in the middle of each pot. The rice plants were grown under normal growth condition (30°C, 70% RH) for 8 weeks. Number of emerged Striga plants in each pot were counted.

[6] = Stability of SL analogs in aqueous solution by HPLC; type: physicochemical; settings: pH 6.8, 3-day intervals up to 3 weeks
Experimental: The SL analogs GR24, AR8, MP13, and MP26 were first tested for their stability by high-performance liquid chromatography (HPLC) in an aqueous solution (50 μgml^−1, pH, 6.8) by adopting the previously described procedure with minor modifications ([Jamil et al., 2018]). Each compound (1 mg) was dissolved in 1-ml acetone, and then […] out of the analog solution were diluted with 150 μl ethanol and 750 μl water. Thereafter, 25 μl Indanol (1 mg ml^−1, internal standard) was spiked in 975-μl test solution. The time course of degradation was monitored by ultra-performance liquid chromatography (UPLC) analysis using a Zorbax Eclipse XDB-C18 column (3.5 μm, 4.6 mm× 150 mm), eluted first by 5% acetonitrile in water for 0.5 min, then by a gradient flow from 5 to 100% acetonitrile within 17.5 min, and by 100% acetonitrile for 5 min. The column was operated at 40°C with a flow rate of 0.35 ml min^−1, and the temperature of auto-sampler was set at 21°C. Compounds eluted from the column were detected with a photodiode array detector, and the relative quantity of non-degraded amount was calculated by integrating corresponding peak areas and comparison with the internal standard Indanol. Stability was monitored at 3-day intervals up to 3 weeks.

[7] = test system: rice d10 mutant; assay: Rice micro tillering bioassay (d10 mutant, hydroponic); type: in vivo; settings: for number of tillers per plant: SL-deficient d10 mutant, hydroponic, twice a week up to 3 weeks, untreated d10 six tillers; for inhibition at 2.5 µM: Oryza sativa, read-out: tillering inhibition
Experimental: Rice seeds (d10) were sterilized with 2.5% sodium hypochlorite for 15 min. After thorough washing with sterile MilliQ water, the seeds were kept in water for 2 days at 30°C in the dark for imbibition and pre-germination. The pre-germinated seeds were then transferred to moist filter paper in 90-mm petri plates and incubated at 30°C overnight. The plates with germinated seeds were then shifted in a growth cabinet with fluorescent white light (130–180 μM m^−2 s^−1) for 1 week. Seven days-old seedlings were moved to 50-ml falcon tubes (one seedling per tube) containing modified half-strength Hoagland nutrient solution in greenhouse. After 1 week, rice plants were treated with 2.5 μM of each SL analog. Mock and GR24 (2.5 μM) were included as control treatments. Six applications of each SL analog were done two times in a week. After 3 weeks of application, number of tillers per plant, plant height, and fresh biomass were measured at final harvest.

[8] = read-out: EC50 P. aegyptiaca seed germination, formulated
[9] = read-out: EC50 P. aegyptiaca seed germination, non-formulated
[10] = read-out: EC50 Striga seed germination, formulated
[11] = read-out: EC50 Striga seed germination, non-formulated

Row | Structure (SMILES) | inhibition of hypocotyl growth (reduction in hypocotyl length) [1] | EC50 [2, 8] | EC50 [2, 9] | P. aegyptiaca germination rate [2] | Striga germination rate [4] | EC50 [4, 10] | EC50 [4, 11] | Striga emergence at 10 WAS [5] | decrease in Striga emergence compared to mock at 10 WAS [5] | Striga hermonthica emergence, 5 WAS [5] | Striga hermonthica emergence, 6 WAS [5] | Striga hermonthica emergence, 7 WAS [5] | Striga hermonthica emergence, 8 WAS [5] | Striga hermonthica emergence, 9 WAS [5] | Striga hermonthica emergence, 10 WAS [5] | percent decrease in Striga hermonthica emergence over mock, 8 WAS [5] | percent decrease in Striga hermonthica emergence over mock, 9 WAS [5] | percent decrease in Striga hermonthica emergence over mock, 10 WAS [5] | stability by HPLC (relative amount of non-degraded analog) [6] | number of tillers per plant ([7]; 2.5 μM) | other results
1 | CC1=C(C)C(O/C=C(\C)C=O)OC1=O (stereo not drawn) [AR8, reference compound] | did not lead to a significant effect | 320 nM | 970 nM | 32% | 9% | 990 nM | 690000 nM | 11 plants per pot | around 18% | 0.4±0.2 | 4.4±0.5 | 7.2±1.5 | 10.6±1.5 | 10.8±1.5 | 10.6±1.5 | -4% | -11% | -18% | slightly less stability than GR24 and MP26 but more than MP13 | 5.6 tillers per plant | Striga germination rate after 1 week's storage ([3]; 30°C): total loss of activity
2 | CC1=CC(O/C=C(\C)C=O)OC1=O (stereo not drawn) [MP13, (E)-2-methyl-3-[(4-methyl-5-oxo-2,5-dihydrofuran-2-yl)oxy]acrylaldehyde] | did not lead to a significant effect | 250 nM | 32 nM | around 68% | 37–70% | 110 nM | 640 nM | six | 52% | 0.0±0.0 | 1.6±1.0 | 2.6±0.6 | 4.8±0.6 | 5.8±0.6 | 6.2±0.7 | -56% | -51% | -52% | lowest stability throughout the whole 3 weeks of analysis | 4.5 tillers per plant | Striga germination rate after 1 week's storage ([3]; 30°C): 9%; Striga germination activity after 2 weeks of storage ([3]; 30°C, 2 weeks): not detectable; Striga germination rate before storage [3]: 53%; inhibition at 2.5 µM [7]: 23%
3 | COC(=O)/C=C/C(C)=C/OC1C=C(C)C(=O)O1 (stereo not drawn) [MP26, (2E,4E)-methyl 4-methyl-5-(4-methyl-5-oxo-2,5-dihydrofuran-2-yloxy)penta-2,4-dienoate] | – | 99 nM | 520 nM | around 68% | 37–70% | 98 nM | 350 nM | four | 69% | 0.0±0.0 | 0.8±0.6 | 1.4±0.4 | 2.6±0.4 | 3.6±0.8 | 4.0±0.9 | -76% | -68% | -69% | equal stability as GR24 up to 6 days of incubation | 2.5 tillers per plant | inhibition at 1 µM ([1]; Arabidopsis thaliana, read-out: inhibition of hypocotyl growth (reduction in hypocotyl length)): 15%; Striga germination rate after 6 weeks of storage ([3]; 30°C, 6 weeks): 4%; Striga germination rate before storage [3]: 69%; inhibition at 2.5 µM [7]: 57%; plant height compared to mock ([7]; d10 mutant, 2.5 μM): significant increase in plant height
